# Source: patent US9006450B2 (Boehringer Ingelheim International GmbH, priority 2010, dated 2015)
# Target: T1, human ACC2 (Homo sapiens, UniProt O00763)
# T1 construct: made in house; host or cells: insect cells (baculoviral expression system)
# Experiment: ACC2 assay, spectrophotometric 384 well assay (NADH-linked, coupled lactate dehydrogenase/pyruvate kinase)
# Format: biochemical
# Conditions: ACC2 assay, hACC2 construct lacking 128 N-terminal amino acids, 25° C., 340 nm; read-out: IC50
# Method in brief: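 Human ACC2 lacking N-terminal 128 aa, baculovirus/insect-cell expressed, anion-exchange purified; 100 mM Tris pH 7.5, 10 mM citrate, 25 mM KHCO3, 1% DMSO. Started with 200 μM NADH and acetyl-CoA plus 500 μM ATP; PK/LDH-coupled A340 decrease read 15 min at 25° C. IC50 by nonlinear fit of low-control-subtracted slopes.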
# T1 sequence (O00763 129-2458 limits assumed): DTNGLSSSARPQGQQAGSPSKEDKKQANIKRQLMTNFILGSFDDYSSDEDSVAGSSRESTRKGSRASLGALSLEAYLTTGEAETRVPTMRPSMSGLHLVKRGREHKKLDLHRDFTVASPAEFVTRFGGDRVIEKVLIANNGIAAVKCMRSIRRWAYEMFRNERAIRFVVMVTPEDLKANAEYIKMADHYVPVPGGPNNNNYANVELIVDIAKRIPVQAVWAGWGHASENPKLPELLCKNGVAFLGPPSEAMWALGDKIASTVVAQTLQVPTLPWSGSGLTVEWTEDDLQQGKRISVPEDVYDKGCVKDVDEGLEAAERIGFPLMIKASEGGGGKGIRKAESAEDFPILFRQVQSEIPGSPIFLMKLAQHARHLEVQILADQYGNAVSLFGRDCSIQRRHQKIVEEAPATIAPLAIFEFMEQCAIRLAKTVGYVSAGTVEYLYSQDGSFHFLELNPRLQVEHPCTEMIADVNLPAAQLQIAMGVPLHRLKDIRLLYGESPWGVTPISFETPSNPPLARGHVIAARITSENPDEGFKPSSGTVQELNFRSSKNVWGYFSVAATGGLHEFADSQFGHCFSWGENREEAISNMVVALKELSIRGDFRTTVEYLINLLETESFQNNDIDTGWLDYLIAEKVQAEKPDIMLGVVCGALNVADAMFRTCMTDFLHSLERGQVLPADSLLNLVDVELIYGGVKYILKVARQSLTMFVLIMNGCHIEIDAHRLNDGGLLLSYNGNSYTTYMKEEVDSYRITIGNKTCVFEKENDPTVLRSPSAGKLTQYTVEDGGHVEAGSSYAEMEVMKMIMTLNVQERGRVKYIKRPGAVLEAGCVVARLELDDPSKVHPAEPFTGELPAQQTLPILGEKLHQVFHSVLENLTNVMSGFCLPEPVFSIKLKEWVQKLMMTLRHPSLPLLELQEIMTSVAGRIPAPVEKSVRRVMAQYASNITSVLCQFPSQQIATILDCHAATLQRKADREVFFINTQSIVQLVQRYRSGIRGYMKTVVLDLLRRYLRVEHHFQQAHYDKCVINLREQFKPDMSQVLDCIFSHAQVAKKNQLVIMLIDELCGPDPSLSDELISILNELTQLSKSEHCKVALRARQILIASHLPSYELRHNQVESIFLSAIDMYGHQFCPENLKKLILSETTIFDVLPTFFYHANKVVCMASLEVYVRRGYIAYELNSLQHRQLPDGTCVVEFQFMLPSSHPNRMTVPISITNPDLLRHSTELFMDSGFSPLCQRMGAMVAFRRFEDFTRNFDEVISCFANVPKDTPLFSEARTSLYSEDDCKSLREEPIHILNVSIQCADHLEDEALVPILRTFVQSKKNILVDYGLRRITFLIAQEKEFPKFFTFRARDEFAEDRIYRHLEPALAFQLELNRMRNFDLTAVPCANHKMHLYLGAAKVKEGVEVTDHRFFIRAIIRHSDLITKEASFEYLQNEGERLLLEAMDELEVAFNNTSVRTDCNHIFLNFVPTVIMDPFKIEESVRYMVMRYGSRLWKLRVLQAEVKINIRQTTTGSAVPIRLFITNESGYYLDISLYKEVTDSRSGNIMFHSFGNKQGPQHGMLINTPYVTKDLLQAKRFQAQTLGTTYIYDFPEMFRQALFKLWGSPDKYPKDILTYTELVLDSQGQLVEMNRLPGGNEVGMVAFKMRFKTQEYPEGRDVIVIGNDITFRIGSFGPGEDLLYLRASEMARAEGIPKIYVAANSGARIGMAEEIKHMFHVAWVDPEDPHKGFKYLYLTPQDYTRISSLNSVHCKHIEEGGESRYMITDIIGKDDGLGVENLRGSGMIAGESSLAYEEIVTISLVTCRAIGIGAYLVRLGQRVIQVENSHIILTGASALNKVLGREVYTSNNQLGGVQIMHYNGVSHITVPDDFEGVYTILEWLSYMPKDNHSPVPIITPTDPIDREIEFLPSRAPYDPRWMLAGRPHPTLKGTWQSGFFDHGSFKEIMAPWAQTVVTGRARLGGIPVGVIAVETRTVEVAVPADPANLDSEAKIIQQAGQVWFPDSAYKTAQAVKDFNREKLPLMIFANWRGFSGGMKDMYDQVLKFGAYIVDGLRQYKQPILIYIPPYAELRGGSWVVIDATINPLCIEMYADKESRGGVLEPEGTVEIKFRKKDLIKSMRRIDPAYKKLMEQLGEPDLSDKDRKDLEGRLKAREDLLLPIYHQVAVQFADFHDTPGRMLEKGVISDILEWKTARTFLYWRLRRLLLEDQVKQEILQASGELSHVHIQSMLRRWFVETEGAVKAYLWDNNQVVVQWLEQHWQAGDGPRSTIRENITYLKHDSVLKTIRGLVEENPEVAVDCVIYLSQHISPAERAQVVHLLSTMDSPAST
row,IC50 [nM],Compound
1,22100,C[C@H](NC(=O)C1CC1)c1ccc(C2CCN(c3cc4c(cc3F)OCCCO4)CC2)cc1 [Example 1.185]
2,250,CCOc1ccc(N2CCC(c3ccc([C@H](C)NC(=O)C4(C(F)(F)F)CC4)cc3)CC2)cc1 [Example 6.34]
3,9100,CCOc1ccc(N2CCC(c3ccc([C@H](C)NC(=O)c4cnon4)cc3)CC2)cc1 [Example 6.36]
4,70,CC(=O)N[C@@H](C)c1ccc(C2CCN(c3ncc(-c4ccc5c(c4)CCO5)cn3)CC2)cc1 [Example 10.24]
5,3200,CC(=O)N[C@@H](C)c1ccc(C2CCN(c3ccc(C(C)C)cn3)CC2)cc1 [Example 4.13]
6,390,C[C@H](NC(=O)C1CC1)c1ccc(C2CCN(c3ncc4nc(-c5ccsc5)oc4n3)CC2)cc1 [Example 4.301]
7,350,CC(=O)N[C@@H](C)c1ccc(C2CCN(c3ccnc(N(C)C4CCCC4)n3)CC2)cc1 [Example 11.96]
8,220,CC(=O)N[C@@H](C)c1ccc(C2CCN(c3cccc(OC4CCCC4)c3)CC2)cc1 [Example 8.5]
9,570,CC(=O)N[C@@H](C)c1ccc(C2CCN(c3ncc(C4CC4)cn3)CC2)cc1 [Example 10.202]
10,300,CC(=O)N[C@@H](C)c1ccc(C2CCN(c3cc(OCCC(C)(C)C)ncn3)CC2)cc1 [Example 11.12]
11,7500,CCOc1ccc(N2CCC(c3ccc([C@H](C)NS(=O)(=O)C4CCC4)cc3)CC2)cc1 [Example 17.3]
12,7700,COC(=O)c1cnc(N2CCC(c3ccc([C@H](C)NC(C)=O)cc3)CC2)cn1 [Example 5.53]
13,1100,CC(=O)N[C@@H](C)c1ccc(C2CCN(c3noc4ccccc34)CC2)cc1 [Example 4.30]
14,470,COCCOc1ccc(N2CCC(c3ccc([C@H](C)NC(C)=O)cc3)CC2)cc1 [Example 9.24]
15,180,CC(=O)N[C@@H](C)c1ccc(C2CCN(c3ncc(-c4ccc(F)cc4)cc3F)CC2)cc1 [Example 10.311]
16,50,C[C@H](NC(=O)C1CC1)c1ccc(C2CCN(c3ccc(OC4CCC4)cc3)CC2)cc1 [Example 1.9]
17,2800,"COC(=O)Cc1ccc(N2CCC(c3ccc([C@H](C)NC(C)=O)cc3)CC2)cc1 [Example 15.1, (S)-(4-{4-[4-(1-Acetylamino-ethyl)-phenyl]-piperidin-1-yl}-phenyl)-acetic acid methyl ester]"
18,160,CC(=O)N[C@@H](C)c1ccc(C2CCN(c3ccc(OCC(C)C)c(Cl)c3)CC2)cc1 [Example 8.30]
19,13300,CCCn1ccc(N2CCC(c3ccc([C@H](C)NC(C)=O)cc3)CC2)cc1=O [Example 3.9]
20,710,CC(=O)N[C@@H](C)c1ccc(C2CCN(c3ncc(-c4ccncc4)cn3)CC2)cc1 [Example 10.16]
21,50,CC(=O)N[C@@H](C)c1ccc(C2CCN(c3ccc(OCCC4CC4)cc3F)CC2)cc1 [Example 1.101]
